The test system of test [1] is KU-19-19. Nature of the test: Cell proliferation MTS assay. The note with it: Homo sapiens, read-out: IC50 KU-19-19 (AKT1-E17K, NrasQ61R). Type of test: cell-based. How it is done:
(§1) IC50 was calculated using Activity Base. Data shown as mean ± standard deviation. […] (DOCX) Click here for additional data file.
(§2) Treated cells were incubated at 37°C for 72 hours in 5% CO2.
(§3) The GI50 was then determined using Microsoft ExcelFit software in Activity Base.

Test [2] has as its system NCI-H1650. The experiment in a line: Cell proliferation MTS assay. Type of test: cell-based. The settings on record: Homo sapiens, read-out: IC50 NCI-H1650 (PTEN null). As for the experimental part:
as §1, §2, §3
Background: Tetrazolium dyes change colour on reduction, which living cells bring about.

Test [3] deals with MDA-MB-453. Nature of the test: Cell proliferation MTS assay. Format: cell-based. The note with it: Homo sapiens, read-out: IC50 MDA-MB-453 (PIK3CAH1047R). As for the experimental part:
as §1, §2, §3

The target of test [4] is T1, AKT1-WT (Homo sapiens, UniProt P31749).
T1 construct: host or cells: NIH 3T3 cells
T1 sequence (P31749 whole entry): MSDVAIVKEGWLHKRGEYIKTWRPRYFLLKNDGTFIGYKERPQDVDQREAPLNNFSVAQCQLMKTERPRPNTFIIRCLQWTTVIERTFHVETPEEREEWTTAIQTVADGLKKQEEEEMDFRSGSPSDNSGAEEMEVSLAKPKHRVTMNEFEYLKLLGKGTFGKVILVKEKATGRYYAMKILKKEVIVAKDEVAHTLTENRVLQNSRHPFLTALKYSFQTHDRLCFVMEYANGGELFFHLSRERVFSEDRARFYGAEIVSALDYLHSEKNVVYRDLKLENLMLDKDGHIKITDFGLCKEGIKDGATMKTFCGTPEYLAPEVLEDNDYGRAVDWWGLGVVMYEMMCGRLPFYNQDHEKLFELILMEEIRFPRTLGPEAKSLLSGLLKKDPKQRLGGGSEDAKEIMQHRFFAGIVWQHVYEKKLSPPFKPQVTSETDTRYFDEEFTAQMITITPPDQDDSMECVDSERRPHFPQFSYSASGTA
The experiment in a line: AKT1 plasma membrane translocation in NIH 3T3 cells. Type of test: cell-based. The note with it: NIH 3T3, 1 μM for 2 hours, PDGF-BB 50 ng/ml 10 minutes. As for the experimental part: (§4) Cells (15,000 cells per chamber) were plated into a Nunc Lab-Tek Chambered Coverglass System (Thermo Fisher Scientific, Waltham, MA) containing full media without antibiotics. […] Next, the cells were stimulated with PDGF (PeproTech, Rocky Hill, NJ) at 50 ng/ml for 10 minutes. Cells were washed with PBS and then fixed with 200 μl paraformaldehyde fixation buffer (3% paraformaldehyde, 2% sucrose in PBS, pre-warmed at […]). After washing with PBS, cells were blocked and permeabolized with 0.1% TX-100 + 1% BSA in PBS for 15 minutes at room temperature. Next, 200 μl DAPI (1 μg/ml in PBS) was used to counterstain the nuclei at room temperature in darkness for 15 minutes. Samples were then rinsed with cold PBS and stored at 4°C until imaging. Images were captured using an Olympus inverted epi-fluorescent microscope (Olympus Corporation of America, Center Valley, PA) with a 60x oil immersion objective.

The target of test [5] is T2, AKT1-E17K (Homo sapiens, UniProt P31749, E17K).
T2 construct: host or cells: NIH 3T3 cells
T2 sequence (P31749 whole entry E17K): as the sequence (P31749 whole entry) above, with E17K counted along it
The test is described as above. The note with it: NIH 3T3, 1 μM for 2 hours, PDGF-BB 50 ng/ml 10 minutes. Format: cell-based. As for the experimental part: as §4

Test [6] concerns KPL-4 tumors. The experiment in a line: KPL-4 xenograft combination study. Format: in vivo, mice. The settings on record: vs untreated control; ARQ 092 60 mg/kg oral daily 12 days; trastuzumab 15 mg/kg iv every three days; paclitaxel 15 mg/kg iv every 6 days.
Experimental: (§5) The tumor length and width (mm) were measured using a digital caliper. The estimated tumor volume (mm^3) was calculated according to the following formula: 0.5 x (tumor length) x (tumor width)^2, and reported as the mean ± SEM.
For test [7], the system named is melanoma PDX tumor model (ST052C). Nature of the test: Vemurafenib-resistant melanoma PDX combination study. Type of test: in vivo, mice. The settings on record: ARQ 092 100 mg/kg 5 days on 2 days off; trametinib 3 mg/kg; p<0.05.
Experimental: Athymic nude mice (Charles River Laboratories, Wilmington, MA) were subcutaneously implanted with tumor fragments and the study was initiated seven days later when the mean tumor volume was approximately 140 mm^3. […] After 13 days, the dosing schedule for trametinib was reduced to a schedule of 5 days on and 2 days off.
as §5

Like-named read-outs stand apart in the source and are kept apart here.

`CC(C)NC[C@@H](C(=O)N1CCN(c2ncnc3c2[C@H](C)C[C@H]3O)CC1)c1ccc(Cl)cc1` [GDC-0068, reference compound]: the IC50 was 55 ± 5.1 µM in test [1] (KU-19-19, 72 h); greater than 33.3 µM in test [2] (NCI-H1650, 72 h); 1 ± 0.16 µM in test [3] (MDA-MB-453, 72 h). In test [4], the “plasma membrane translocation of AKT1-WT” value was “stimulated translocation”. For the same compound, the “plasma membrane translocation of AKT1-E17K” value in test [5] is on record as “stimulated translocation”.

For the compound `NC1(c2ccc(-c3nc4ccn5c(=O)[nH]nc5c4cc3-c3ccccc3)cc2)CCC1` [MK-2206, reference compound], the IC50 in test [1] (KU-19-19, MTS, 72 hours, mean ± standard deviation) came to 21.5 ± 5.3 µM; in test [2] (NCI-H1650, MTS, 72 hours, mean ± standard deviation), 15.2 ± 3.01 µM; in test [3] (MDA-MB-453, MTS, 72 hours, mean ± standard deviation), 0.26 ± 0.02 µM. The “plasma membrane translocation of AKT1-WT” value in test [4] is on record as “inhibited”. The “plasma membrane translocation of AKT1-E17K” value in test [5] is listed as “only weakly inhibited”.

In the case of `CC(=O)O[C@H]1C(=O)[C@@]2(C)[C@H]([C@H](OC(=O)c3ccccc3)[C@]3(O)C[C@H](OC(=O)[C@H](O)[C@@H](NC(=O)c4ccccc4)c4ccccc4)C(C)=C1C3(C)C)[C@]1(OC(C)=O)CO[C@@H]1C[C@@H]2O` [paclitaxel, reference compound], in test [6], the tumor growth inhibition amounted to 41%.

With `CC(=O)Nc1cccc(-n2c(=O)n(C3CC3)c(=O)c3c(Nc4ccc(I)cc4F)n(C)c(=O)c(C)c32)c1` [trametinib, reference compound], the TGI in test [7] came out at 26%.

The IC50 is the concentration needed to halve the response being measured. A word on the TGI: it is the reduction of tumour growth relative to the control group.

These data come from publication PMC4607407 (PLoS ONE, 2015).
